The source of these data is PubChem BioAssay (NCI).

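Compound exposure: 48 hours, 5 concentrations, 96-well plates. TGI is the concentration that stops growth completely.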

In one assay the test system is NCI-H226 lung. The assay is described as follows: NCI tumour cell line growth inhibition, 48 h.
Turning to `CCOC(=O)NC(=O)c1cn(CCOC(=O)NCCCCCCNC(=O)OCCn2cc(C(=O)NC(=O)OCC)c(=O)[nH]c2=O)c(=O)[nH]c1=O`, the TGI was over 100 µM.

With `COC1[C@@H](OC(C)=O)[C@@H](NC(=O)C(Cl)(Cl)Cl)C(I)[C@@H](N2C(=O)c3ccccc3C2=O)[C@H]1OC` (some centres undefined), the TGI is over 100 µM.

Regarding `O=S(Cc1ccccn1)c1nc2ccccc2nc1-c1ccccc1` (centres undefined), the TGI was determined as 76.2 µM.

Regarding `O=C(CSc1nnc(-c2ccc(N=Cc3ccc(Cl)cc3)cc2)o1)Nc1ccc(Cl)cc1`, the TGI was over 100 µM.

In another assay the test system is HOP-62 NSCLC. The assay is described as follows: NCI tumour cell line growth inhibition, 48 h.
In turn, `CCOC(=O)NC(=O)c1cn(CCOC(=O)NCCCCCCNC(=O)OCCn2cc(C(=O)NC(=O)OCC)c(=O)[nH]c2=O)c(=O)[nH]c1=O` gave a TGI of over 100 µM.

On to `COC1[C@@H](OC(C)=O)[C@@H](NC(=O)C(Cl)(Cl)Cl)C(I)[C@@H](N2C(=O)c3ccccc3C2=O)[C@H]1OC` (some centres undefined), for which the TGI is over 100 µM.

As to `O=C(CSc1nnc(-c2ccc(N=Cc3ccc(Cl)cc3)cc2)o1)Nc1ccc(Cl)cc1`, the TGI is over 100 µM.

The subject of another assay is NCI-H522 lung. Briefly: NCI tumour cell line growth inhibition, 48 h.
Compound `CC[C@@]12N=C(N(C)C)C[C@]1(O)ON=C2C` showed a TGI of over 100 µM.

Take `CCOC(=O)NC(=O)c1cn(CCOC(=O)NCCCCCCNC(=O)OCCn2cc(C(=O)NC(=O)OCC)c(=O)[nH]c2=O)c(=O)[nH]c1=O`: the TGI was over 100 µM.

`COC1[C@@H](OC(C)=O)[C@@H](NC(=O)C(Cl)(Cl)Cl)C(I)[C@@H](N2C(=O)c3ccccc3C2=O)[C@H]1OC` (some centres undefined) registered a TGI of over 100 µM.

`O=C(CSc1nnc(-c2ccc(N=Cc3ccc(Cl)cc3)cc2)o1)Nc1ccc(Cl)cc1` had a TGI of over 100 µM.

In the next assay the test system is CAKI-1 renal. Briefly: NCI tumour cell line growth inhibition, 48 h.
`CC[C@@]12N=C(N(C)C)C[C@]1(O)ON=C2C`: the TGI is over 100 µM.

For `CCOC(=O)NC(=O)c1cn(CCOC(=O)NCCCCCCNC(=O)OCCn2cc(C(=O)NC(=O)OCC)c(=O)[nH]c2=O)c(=O)[nH]c1=O`, the TGI is over 100 µM.

A further assay deals with OVCAR-5 ovarian. The assay is described as follows: NCI tumour cell line growth inhibition, 48 h.
Turning to `COC1[C@@H](OC(C)=O)[C@@H](NC(=O)C(Cl)(Cl)Cl)C(I)[C@@H](N2C(=O)c3ccccc3C2=O)[C@H]1OC` (some centres undefined), the TGI is over 100 µM.

A further assay relates to LOX IMVI melanoma. Briefly: NCI tumour cell line growth inhibition, 48 h.
As for `CCOC(=O)NC(=O)c1cn(CCOC(=O)NCCCCCCNC(=O)OCCn2cc(C(=O)NC(=O)OCC)c(=O)[nH]c2=O)c(=O)[nH]c1=O`, the TGI was over 100 µM.

For the compound `COC1[C@@H](OC(C)=O)[C@@H](NC(=O)C(Cl)(Cl)Cl)C(I)[C@@H](N2C(=O)c3ccccc3C2=O)[C@H]1OC` (some centres undefined), the TGI is over 100 µM.

With `O=C(CSc1nnc(-c2ccc(N=Cc3ccc(Cl)cc3)cc2)o1)Nc1ccc(Cl)cc1`, the TGI was over 100 µM.

The test system of the next assay is NCI-H23 lung. The assay is described as follows: NCI tumour cell line growth inhibition, 48 h.
Consider `CC[C@@]12N=C(N(C)C)C[C@]1(O)ON=C2C`, for which the TGI is over 100 µM.

The compound `COC1[C@@H](OC(C)=O)[C@@H](NC(=O)C(Cl)(Cl)Cl)C(I)[C@@H](N2C(=O)c3ccccc3C2=O)[C@H]1OC` (some centres undefined) yielded a TGI of over 100 µM.

For `O=S(Cc1ccccn1)c1nc2ccccc2nc1-c1ccccc1` (centres undefined), the TGI is over 100 µM.

On to `O=C(CSc1nnc(-c2ccc(N=Cc3ccc(Cl)cc3)cc2)o1)Nc1ccc(Cl)cc1`, for which the TGI was over 100 µM.

Another assay relates to IGROV1 ovarian. Briefly: NCI tumour cell line growth inhibition, 48 h.
The compound `CC[C@@]12N=C(N(C)C)C[C@]1(O)ON=C2C` returned a TGI of over 100 µM.

`CCOC(=O)NC(=O)c1cn(CCOC(=O)NCCCCCCNC(=O)OCCn2cc(C(=O)NC(=O)OCC)c(=O)[nH]c2=O)c(=O)[nH]c1=O`: the TGI is over 100 µM.

`COC1[C@@H](OC(C)=O)[C@@H](NC(=O)C(Cl)(Cl)Cl)C(I)[C@@H](N2C(=O)c3ccccc3C2=O)[C@H]1OC` (some centres undefined): the TGI is over 100 µM.

In turn, `O=S(Cc1ccccn1)c1nc2ccccc2nc1-c1ccccc1` (centres undefined) showed a TGI of 73.3 µM.

The test system of a further assay is OVCAR-8 ovarian. The assay is described as follows: NCI tumour cell line growth inhibition, 48 h.
Compound `CC[C@@]12N=C(N(C)C)C[C@]1(O)ON=C2C` showed a TGI of over 100 µM.

As for `CCOC(=O)NC(=O)c1cn(CCOC(=O)NCCCCCCNC(=O)OCCn2cc(C(=O)NC(=O)OCC)c(=O)[nH]c2=O)c(=O)[nH]c1=O`, the TGI was over 100 µM.

As for `COC1[C@@H](OC(C)=O)[C@@H](NC(=O)C(Cl)(Cl)Cl)C(I)[C@@H](N2C(=O)c3ccccc3C2=O)[C@H]1OC` (some centres undefined), the TGI is over 100 µM.

The compound `O=S(Cc1ccccn1)c1nc2ccccc2nc1-c1ccccc1` (centres undefined) yielded a TGI of over 100 µM.

Compound `O=C(CSc1nnc(-c2ccc(N=Cc3ccc(Cl)cc3)cc2)o1)Nc1ccc(Cl)cc1` gave a TGI of over 100 µM.

The subject of the next assay is SNB-19 CNS. Briefly: NCI tumour cell line growth inhibition, 48 h.
In turn, `CC[C@@]12N=C(N(C)C)C[C@]1(O)ON=C2C` displayed a TGI of over 100 µM.

Take `CCOC(=O)NC(=O)c1cn(CCOC(=O)NCCCCCCNC(=O)OCCn2cc(C(=O)NC(=O)OCC)c(=O)[nH]c2=O)c(=O)[nH]c1=O`: the TGI is over 100 µM.

On to `COC1[C@@H](OC(C)=O)[C@@H](NC(=O)C(Cl)(Cl)Cl)C(I)[C@@H](N2C(=O)c3ccccc3C2=O)[C@H]1OC` (some centres undefined), for which the TGI was over 100 µM.

Compound `O=S(Cc1ccccn1)c1nc2ccccc2nc1-c1ccccc1` (centres undefined) showed a TGI of over 100 µM.

Take `O=C(CSc1nnc(-c2ccc(N=Cc3ccc(Cl)cc3)cc2)o1)Nc1ccc(Cl)cc1`: the TGI was over 100 µM.

A further assay deals with RPMI-8226 leukemia. Briefly: NCI tumour cell line growth inhibition, 48 h.
In turn, `CC[C@@]12N=C(N(C)C)C[C@]1(O)ON=C2C` gave a TGI of over 100 µM.

On to `CCOC(=O)NC(=O)c1cn(CCOC(=O)NCCCCCCNC(=O)OCCn2cc(C(=O)NC(=O)OCC)c(=O)[nH]c2=O)c(=O)[nH]c1=O`, for which the TGI was over 100 µM.

Compound `COC1[C@@H](OC(C)=O)[C@@H](NC(=O)C(Cl)(Cl)Cl)C(I)[C@@H](N2C(=O)c3ccccc3C2=O)[C@H]1OC` (some centres undefined) gave a TGI of over 100 µM.

In turn, `O=S(Cc1ccccn1)c1nc2ccccc2nc1-c1ccccc1` (centres undefined) came in with a TGI of 91.3 µM.

The compound `O=C(CSc1nnc(-c2ccc(N=Cc3ccc(Cl)cc3)cc2)o1)Nc1ccc(Cl)cc1` registered a TGI of over 100 µM.

Another assay has as its system DLD-1 colon. Briefly: NCI tumour cell line growth inhibition, 48 h.
`CC[C@@]12N=C(N(C)C)C[C@]1(O)ON=C2C` had a TGI of over 100 µM.

In the case of `CCOC(=O)NC(=O)c1cn(CCOC(=O)NCCCCCCNC(=O)OCCn2cc(C(=O)NC(=O)OCC)c(=O)[nH]c2=O)c(=O)[nH]c1=O`, the TGI is over 100 µM.

The compound `COC1[C@@H](OC(C)=O)[C@@H](NC(=O)C(Cl)(Cl)Cl)C(I)[C@@H](N2C(=O)c3ccccc3C2=O)[C@H]1OC` (some centres undefined) gave a TGI of over 100 µM.

Another assay concerns OVCAR-4 ovarian. The assay is described as follows: NCI tumour cell line growth inhibition, 48 h.
The compound `CC[C@@]12N=C(N(C)C)C[C@]1(O)ON=C2C` displayed a TGI of over 100 µM.

The compound `CCOC(=O)NC(=O)c1cn(CCOC(=O)NCCCCCCNC(=O)OCCn2cc(C(=O)NC(=O)OCC)c(=O)[nH]c2=O)c(=O)[nH]c1=O` yielded a TGI of over 100 µM.

As to `COC1[C@@H](OC(C)=O)[C@@H](NC(=O)C(Cl)(Cl)Cl)C(I)[C@@H](N2C(=O)c3ccccc3C2=O)[C@H]1OC` (some centres undefined), the TGI is over 100 µM.

Compound `O=S(Cc1ccccn1)c1nc2ccccc2nc1-c1ccccc1` (centres undefined) yielded a TGI of over 100 µM.

Regarding `O=C(CSc1nnc(-c2ccc(N=Cc3ccc(Cl)cc3)cc2)o1)Nc1ccc(Cl)cc1`, the TGI was over 100 µM.

The test system of another assay is XF 498 CNS. Briefly: NCI tumour cell line growth inhibition, 48 h.
`CC[C@@]12N=C(N(C)C)C[C@]1(O)ON=C2C` had a TGI of over 100 µM.

For `O=S(Cc1ccccn1)c1nc2ccccc2nc1-c1ccccc1` (centres undefined), the TGI came to 47.3 µM.

`O=C(CSc1nnc(-c2ccc(N=Cc3ccc(Cl)cc3)cc2)o1)Nc1ccc(Cl)cc1`: the TGI is over 100 µM.

Another assay deals with M19-MEL melanoma. The assay is described as follows: NCI tumour cell line growth inhibition, 48 h.
In the case of `CC[C@@]12N=C(N(C)C)C[C@]1(O)ON=C2C`, the TGI was over 100 µM.

Consider `CCOC(=O)NC(=O)c1cn(CCOC(=O)NCCCCCCNC(=O)OCCn2cc(C(=O)NC(=O)OCC)c(=O)[nH]c2=O)c(=O)[nH]c1=O`, for which the TGI was over 100 µM.

Consider `O=C(CSc1nnc(-c2ccc(N=Cc3ccc(Cl)cc3)cc2)o1)Nc1ccc(Cl)cc1`, for which the TGI is over 100 µM.

A further assay concerns SF-295 CNS. Briefly: NCI tumour cell line growth inhibition, 48 h.
On to `CC[C@@]12N=C(N(C)C)C[C@]1(O)ON=C2C`, for which the TGI is over 100 µM.

Compound `CCOC(=O)NC(=O)c1cn(CCOC(=O)NCCCCCCNC(=O)OCCn2cc(C(=O)NC(=O)OCC)c(=O)[nH]c2=O)c(=O)[nH]c1=O` returned a TGI of over 100 µM.

`COC1[C@@H](OC(C)=O)[C@@H](NC(=O)C(Cl)(Cl)Cl)C(I)[C@@H](N2C(=O)c3ccccc3C2=O)[C@H]1OC` (some centres undefined): the TGI is over 100 µM.

In the case of `O=S(Cc1ccccn1)c1nc2ccccc2nc1-c1ccccc1` (centres undefined), the TGI was over 100 µM.

`O=C(CSc1nnc(-c2ccc(N=Cc3ccc(Cl)cc3)cc2)o1)Nc1ccc(Cl)cc1` returned a TGI of over 100 µM.
